# Legend:
# [1] = system: MCF-7 cells; assay: E2-dependent cell proliferation assay (MTT/CCK-8), MCF-7; format: cell-based, human
# Experimental: FIG. 6-1 is a diagram illustrating that ERAP1-peptide treatment suppresses ERα-dependent cell proliferation of breast cancer cell lines. (A) and (B) show the results of MTT assay by which the inhibition effect of the ERAP1-peptide in the E2-dependent cell proliferation was evaluated. MCF-7 cells were treated with the ERAP1-peptide (A, B) the ERAP1-scramble peptide (B) or the ERAP1-mutant peptide (B).
# FIG. 7-1 is a diagram illustrating that ERAP1-peptide treatment suppresses ERα-dependent cell proliferation of breast cancer cell lines. […] KPL-3C cells were treated with the ERAP1-peptide, the scramble peptide or the mutant peptide. Then, immediately, the cells were stimulated with 10 nM E2 for 24 hours. […] Then, immediately, the cells were stimulated with 10 nM E2. Then, the ERAP1-peptide was added every day for […]. […] The arrow indicates addition of the ERAP1-peptide.
# FIG. 7-3 is a diagram illustrating that ERAP1-peptide treatment suppresses ERα-dependent cell proliferation of breast cancer cell lines. […] MCF-7 cells were treated with 10 μM ERAP1-peptide. Then, immediately, the cells were stimulated with 10 nM E2 (white square). Then, 10 μM ERAP1-peptide was added every day for four days (black square).
# FIG. 20 is a diagram illustrating the results of evaluations for the influence of the difference of the sequence on E2-dependent cell proliferation suppression effect. […] Then, immediately, the cells were stimulated with E2 for 24 hours.
# MCF-7 cells were suspended in MEM (Invitrogen, Carlsbad, Calif., USA) reinforced with 10% FBS (Nichirei Biosciences, Tokyo, Japan), 1% antibiotic/antimycotic solution (Invitrogen), 0.1 mM NEAA (Tnvitrogen), 1 mM sodium pyruvate and 10 μg/ml insulin (Sigma, St. Louis, Mo., USA). Then, the cell suspension was seeded in a 48-well plate (2×10^4 cells/200 μl), a 24-well plate (1×10^5 cells/1 ml), a 6-well plate (5×10^5 cells/2 ml) or 10 cm dish (2×10^6 cells/10 ml). The cells were maintained at 37° C. in humidified atmosphere containing 5% carbon dioxide. On the next day of the seeding, the culture medium was exchanged with phenol red-free DMEM/F12 (Invitrogen) reinforced with FBS, an antibiotic/antimycotic solution, NEAA, sodium pyruvate and insulin. After 24 hours, the cells were treated with 10 nM 17β estradiol (E2, Sigma). The ERAP-1 peptide was added just before the E2 stimulation in the inhibition test.
# Using Cell-Counting Kit-8 (CCK-8, Dojindo, Kumamoto, Japan), the cell proliferation assay was performed. […] Then, the absorbance at 450 nm was measured and the number of living cells in each well was calculated.
# The cell proliferation assay was evaluated using Cell-Counting Kit-8 (CCK-8, Dojindo, Kumamoto, Japan). […] Then, 100 μl from each well was moved to a 96-well plate, and the absorbance at 450 nm was measured with a microplate reader.
# [2] = system: MCF-7 cells; assay: E2-independent cell proliferation, MCF-7; format: cell-based, human; conditions: 1, 3, 5 and 10 μM, 24 hours
# Experimental: FIG. 15 is a diagram illustrating the effects of the ERAP1-peptide on E2-independent cell functions. […] MCF-7 cells were treated with the ERAP1-peptide in each concentration (1, 3, 5 and 10 μM) or 10 nM tamoxifen as a positive control for 24 hours. […] MCF-7 cells were stimulated with 10 μM ERAP1-peptide treatment only, 10 nM E2 treatment only, or 10 μM ERAP1-peptide treatment and immediately 10 nM E2 for 24 hours, and the cytoplasm fraction was isolated from each of the treated cells. Then, the cytoplasm fraction was immunoprecipitated with anti-ERα antibody. Furthermore, with respect to the obtained sample, Western blotting analysis was performed using the antibodies shown in the figure.
# MCF-7 cells or ZR-75-1 cells were seeded in 2×10^4/well, and KPL-3C cells were seeded in 1×10^4/well on a 48-well plate, and stood in a CO2 incubator for 24 hours. Then, for MCF-7 cells, the culture medium was exchanged with DMEM/F12 culture medium containing 10% FBS (Nichirei Biosciences, Tokyo, Japan), 1% antibiotic/antimycotic solution (Invitrogen), 0.1 mM NEAA48 (invitrogen), 1 mM sodium pyruvate and 10 μg/ml insulin (Sigma, St. Louis, Mo., USA) and not containing phenol red, and the cells were further pre-cultured for 24 hours. […] Then, 100 μl from each well was moved to a 96-well plate, and the absorbance at 450 nm was measured with a microplate reader.
smiles,measurement,setting,value
CSCC[C@H](NC(=O)[C@H](CCC(N)=O)NC(=O)[C@H](CCCNC(=N)N)NC(=O)[C@H](CCCNC(=N)N)NC(=O)[C@H](CCCNC(=N)N)NC(=O)[C@H](CCCNC(=N)N)NC(=O)[C@H](CCCNC(=N)N)NC(=O)[C@H](CCCNC(=N)N)NC(=O)[C@H](CCCNC(=N)N)NC(=O)[C@H](CCCNC(=N)N)NC(=O)[C@H](CCCNC(=N)N)NC(=O)[C@H](CCCNC(=N)N)NC(=O)[C@@H](N)CCCNC(=N)N)C(=O)N[C@@H](CC(C)C)C(=O)N[C@@H](CO)C(=O)N[C@@H](CC(=O)O)C(=O)N[C@@H](CC(C)C)C(=O)N[C@H](C(=O)N[C@@H](CC(C)C)C(=O)N[C@@H](CCC(N)=O)C(=O)N[C@@H](CC(C)C)C(=O)N[C@@H](CCCNC(=N)N)C(=O)N[C@@H](CCC(N)=O)C(=O)N[C@@H](CCCNC(=N)N)C(=O)O)[C@@H](C)O [ERAP1-peptide],E2-dependent cell proliferation,"[1]; 10 nM E2, up to 24 hours",dose-dependently suppressed the E2-dependent cell proliferation
same,"proliferation of the E2-dependent breast cancer cells, repeated administration","[1]; 5 μM and 10 μM, every 24 hours for four days",completely suppressed
same,duration of E2-dependent proliferation suppression effect,[1]; 10 μM single addition,complete E2-dependent proliferation suppression effect was recognized up to 24 hours
same,cell proliferation in the absence of E2,[2],dose-dependent cell proliferation suppression effect

# Reference: patent publication US9725490B2, “ERAP1-derived peptide and use thereof” (TOKUSHIMA UNIVERSITY, priority 2011, dated 2017)
